Results reported in ChEMBL document CHEMBL1146949, “Isoquinoline derivatives as potential acetylcholinesterase inhibitors” (Bioorg Med Chem Lett, 2006).

Legend:
Acetylcholinesterase [1] = target: T1, Acetylcholinesterase (Homo sapiens, UniProt P22303); assay: Inhibition of AChE activity
Acetylcholinesterase [2] = target: T1, Acetylcholinesterase; assay: Inhibition of AChE at 0.3 mM
Acetylcholinesterase [3] = target: T1, Acetylcholinesterase; assay: Inhibition of AChE at 0.03 mM

T1 sequence (P22303 whole entry): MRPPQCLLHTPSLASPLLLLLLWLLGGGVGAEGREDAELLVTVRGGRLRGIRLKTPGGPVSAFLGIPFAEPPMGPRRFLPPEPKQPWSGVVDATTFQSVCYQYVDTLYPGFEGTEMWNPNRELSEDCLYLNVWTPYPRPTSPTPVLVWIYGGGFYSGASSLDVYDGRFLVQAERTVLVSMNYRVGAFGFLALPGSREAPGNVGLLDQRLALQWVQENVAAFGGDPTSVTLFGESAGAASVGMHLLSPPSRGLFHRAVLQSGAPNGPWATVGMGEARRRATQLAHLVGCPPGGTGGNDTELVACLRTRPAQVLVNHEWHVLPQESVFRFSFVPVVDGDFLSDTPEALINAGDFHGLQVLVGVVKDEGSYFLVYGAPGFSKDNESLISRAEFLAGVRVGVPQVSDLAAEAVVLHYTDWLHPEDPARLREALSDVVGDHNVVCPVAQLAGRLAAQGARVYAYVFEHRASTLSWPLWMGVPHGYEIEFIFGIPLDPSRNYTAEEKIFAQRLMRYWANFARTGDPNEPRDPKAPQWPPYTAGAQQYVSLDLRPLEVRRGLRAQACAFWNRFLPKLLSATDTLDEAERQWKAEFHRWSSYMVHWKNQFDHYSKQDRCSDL

Row | SMILES | IC50 (Acetylcholinesterase [1]) [µM] | inhibition (Acetylcholinesterase [2]) [%] | inhibition (Acetylcholinesterase [3]) [%] | inhibition (Acetylcholinesterase [1]; concentration not given here) [%]
1 | COc1ccc(Cc2nccc3cc(OC)c(OC)cc23)cc1OC [PAPAVERINE] | 24.3 |  |  | 
2 | COC(=O)N1CCc2c(OC)c(OC)c(OC)c3c2C1Cc1cc(OC)c(OC)cc1-3 (stereo unspecified) |  | 15.9 | 7.3 | 
3 | COc1ccc(C(O)c2nccc3cc(OC)c(OC)cc23)cc1OC (stereo unspecified) | 10.7 |  |  | 
4 | COc1cc2ccnc(C(O)c3ccccc3OC)c2cc1OC (stereo unspecified) | 6.94 |  |  | 0
